In article PMC7179302, “Lead Optimization of Dehydroemetine for Repositioned Use in Malaria” (Antimicrobial Agents and Chemotherapy, 2020):
Structures can show the parent of a compound that is named as a salt.

Test system: mitochondrial membrane potential of P. falciparum strain K1 trophozoites
Experiment: Rhodamine 123 staining for mitochondrial membrane potential, flow cytometry
Format: cell-based, Plasmodium falciparum
Conditions: deviation from infected blood without drugs
Protocol: Changes in mitochondrial membrane potential were measured using rhodamine 123 (excitation wavelength, 511 nm; emission wavelength, 534 nm), a membrane-permeating cationic fluorescent dye ([49]), which accumulates by electrostatic attraction in the mitochondria because of its negative transmembrane potential. A change in the dye’s concentration in the mitochondria is caused by a depolarization event and can be visualized as a shift in the fluorescence intensity of rhodamine 123 ([50]). Draq5 (excitation wavelength, 647 nm; emission wavelength, >665 nm) is a far-red fluorescent DNA dye which is cell permeating and was used to distinguish the parasites in flow cytometry in the allophycocyanin (APC)-Cy7-A channel. SYBR green was not preferred for this experiment as it emits in the same channel as rhodamine 123 and would result in the overlap of emission signals. Fluorescence microscopy was used to visualize the localization of rhodamine 123 within the cytoplasm of the parasites (Fig. 9).
A decrease in fluorescence intensity measured in the fluorescein isothiocyanate (FITC)-A channel indicates a loss of mitochondrial membrane potential. Atovaquone, a known mitochondrial inhibitor, was used as a control.
Compounds were then washed away by centrifuging the cultures, and a pellet was prepared for each drug concentration. Pellets were then incubated with 1 ml of 200 nM rhodamine 123 for 1 h, followed by a further incubation with 100 μl of 5 μM Draq5 for 20 min. After a wash with PBS, the experiment was read with a flow cytometer on the FITC channel. Loss of mitochondrial membrane potential was indicated by a decrease in fluorescence intensity.

CCC1=C(C[C@H]2NCCc3cc(OC)c(OC)cc32)C[C@H]2c3cc(OC)c(OC)cc3CCN2C1 [(−)-R,S-dehydroemetine, (S)-2-((R)-6,7-dimethoxy-1,2,3,4-tetrahydro-isoquinolin-1-ylmethyl)-3-ethyl-9,10-dimethoxy-1,6,7,11b-tetrahydro-4H-pyrido[2,1-a]isoquinoline * dihydrobromide]
Change in fluorescence intensity (FITC-A mean) of rhodamine 123 (at 10× IC50, 2 h): 32.98% | Change in fluorescence intensity (FITC-A mean) of rhodamine 123 (at IC50, 2 h): 26.76%
